Columns and labels:
Format in all cases: cell-based
neuroblastoma SK-N-MC = test: In vitro cytotoxicity on human cell lines: neuroblastoma SK-N-MC; conditions: 96 h, incubation 4 days
Procedure: (§1) Murine leukaemia L1210 was used in vitro. The cells are cultured in RPMI 1640 complete culture medium containing 10% foetal calf serum, 2 mM glutamine, 50 units/ml of penicillin, 50 μg/ml of streptomycin and 10 mM Hepes, pH: 7.4. The cells are distributed on microplates and exposed to the cytotoxic compounds for 4 doubling periods, or 48 hours. The number of viable cells is then quantified by means of a colorimetric assay, the Microculture Tetrazolium Assay (J. Carmichael et al., Cancer Res., 47, 936–942, (1987)). The results are expressed as IC50, the concentration of cytotoxic agent which inhibits the proliferation of the treated cells by 50%.
(§2) The compounds of the invention were also tested on human cell lines according to the same experimental protocol as that described for murine leukaemia L1210, but with incubation times of 4 days instead of 2 days.

[1] = tested on: epidermoid carcinoma A431; test: In vitro cytotoxicity on human cell lines: epidermoid carcinoma A431; conditions: A-431, 96 h, epidermoid carcinoma A431, incubation 4 days
Procedure: as §1, §2

[2] = tested on: small cell lung carcinoma H 69; test: In vitro cytotoxicity on human cell lines: small cell lung carcinoma H 69; conditions: 96 h, small cell lung carcinoma H 69, incubation 4 days
Procedure: as §1, §2

Murine leukaemia L1210 = test: In vitro cytotoxicity, murine leukaemia L1210 (Microculture Tetrazolium Assay); conditions: Mus musculus; L1210, exposure 4 doubling periods, or 48 hours; read-out: IC50, the concentration of cytotoxic agent which inhibits the proliferation of the treated cells by 50%
Procedure: as §1

SMILES	IC50 (neuroblastoma SK-N-MC) [µM]	IC50 [1] [µM]	IC50 [2] [µM]	IC50 (Murine leukaemia L1210) [µM]
O=C1NC(=O)c2c1c1c3ccccc3[nH]c1c1c2c2cccnc2n1[C@@H]1O[C@H](CO)[C@@H](O)[C@H](O)[C@H]1O [Example 3, 13-(β-D-glucopyranosyl)-12,13-dihydro-5H-pyrido[3′,2′:4,5]pyrrolo-[2,3-a]pyrrolo[3,4-c]carbazole-5,7(6H)-dione]	< 1	< 1	< 1	–
O=C1NC(=O)c2c1c1c3cc(Br)ccc3[nH]c1c1c2c2cccnc2n1[C@@H]1O[C@H](CO)[C@@H](O)[C@H](O)[C@H]1O [Example 4, 9-bromo-13-(β-D-glucopyranosyl)-12,13-dihydro-5H-pyrido-[3′,2′:4,5]pyrrolo[2,3-a]pyrrolo [3,4-c]carbazole-5,7(6H)-dione]	< 1	< 1	< 1	< 0.1
O=C1NC(=O)c2c1c1c3cc([N+](=O)[O-])ccc3[nH]c1c1c2c2cccnc2n1[C@@H]1O[C@H](CO)[C@@H](O)[C@H](O)[C@H]1O [Example 5, 9-nitro-13-(β-D-glucopyranosyl)-12,13-dihydro-5H-pyrido-[3′,2′:4,5]pyrrolo[2,3-a]pyrrolo[3,4-c]carbazole-5,7(6H)-dione]	< 1	< 1	< 1	< 0.1
O=C1NC(=O)c2c1c1c3cccnc3[nH]c1c1c2c2ccccc2n1[C@@H]1O[C@H](CO)[C@@H](O)[C@H](O)[C@H]1O [Example 9, 12-(β-D-glucopyranosyl)-12,13-dihydro-5H-pyrido[3′,2′:4,5]pyrrolo-[2,3-a]pyrrolo[3,4-c]carbazole-5,7(6H)-dione]	–	–	–	< 0.1
O=C1NC(=O)c2c1c1c3cccnc3[nH]c1c1c2c2cccnc2n1[C@@H]1O[C@H](CO)[C@@H](O)[C@H](O)[C@H]1O [Example 12, 12-(β-D-glucopyranosyl)-12,13-dihydro-5H-pyrido[2,3-b]-pyrido[3′,2′:4,5]pyrrolo[3,2-g]pyrrolo[3,4-e]indole-5,7(6H)-dione]	–	–	–	< 0.1
CN1C(=O)c2c(c3c4cccnc4n([C@@H]4O[C@H](CO)[C@@H](O)[C@H](O)[C@H]4O)c3c3[nH]c4ccccc4c23)C1=O [Example 17, 13-(β-D-glucopyranosyl)-6-methyl-12,13-dihydro-5H-pyrido-[3′,2′:4,5]pyrrolo [2,3-a]pyrrolo [3,4-c]carbazole-5,7(6H)-dione]	< 1	< 1	< 1	–
CN1C(=O)c2c(c3c4cccnc4n([C@@H]4O[C@H](CO)[C@@H](O)[C@H](O)[C@H]4O)c3c3[nH]c4ccc(Br)cc4c23)C1=O [Example 19, 13-(β-D-glucopyranosyl)-9-bromo-6-methyl-12,13-dihydro-5H-pyrido[3′,2′:4,5]pyrrolo[2,3-a]pyrrolo[3,4-c]carbazole-5,7(6H)-dione]	< 1	< 1	< 1	–

From patent US7001906B2, “Pyrido-pyrido-pyrrolo pyrrolo-indole and pyrido-pyrrolo pyrrolo carbazole derivatives, method for the production thereof and pharmaceutical compositions containing said derivatives” (Les Laboratoires Servier, priority 2001, dated 2006)
